In PMC2694832, “Pharmacokinetics, tissue distribution and mass balance of radiolabeled dihydroartemisinin in male rats” (Malaria Journal, 2009):
“And” between values parts separate entries of the source, which are not always exact repeats. Equal values may be shown once.

How the values were obtained:
[1] = Mass balance and urinary/faecal elimination of [^14C] DHA; assay type: in vivo, rats; conditions: rats i.v. 3 mg/kg
Protocol: Metabolic cages were washed with a solution of 2% Count-off® (Perkin-Elmer Life and Analytical Sciences, Boston, Massachusetts, USA) and the volume was measured. Duplicate portions (0.1 ml urine; 1 ml cage rinse) of each sample were radio-assayed after the addition of scintillation cocktail. The weights of individual faecal samples were obtained and the samples were subsequently homogenized in four volumes of de-ionized water. Quadruplicate portions (1.0 ml) of each homogenate were decolourized with 30% hydrogen peroxide, and digested with Solvable® tissue solubilizer. After acidification with glacial acetic acid and addition of scintillation cocktail, samples were assayed for radioactivity. The samples were kept in at -20°C for two weeks prior to analysis.

[2] = tested on: human plasma proteins; assay: Protein binding of [^14C] DHA, equilibrium dialysis, human plasma; assay type: in vitro ADME
Protocol: Human blood samples (five men and five women) were freshly obtained from subject volunteers at the Department of Clinical Trials, WRAIR. Rat samples were freshly collected from five male and five female rats. Equilibrium dialysis was performed using Teflon dialysis chambers and Diachema standard membranes as described by Li and Hümpel. The GD-4/90 Equilibrium Dialyzer (MM Developments, Ottawa) contained 20 micro-dialysis cells (2.0 ml/chamber). The molecular weight cutoff for dialysis membranes was 5000 D. Equilibrium was reached after four hours, when cells were rotated at 16 rpm and 37°C. Drugs were dissolved in plasma samples with various concentrations (0.15 – 57800 ng/ml) and all experiments were carried out for five hours.

[3] = Feces, listed as [^14C] dihydroartemisinin, 3 mg/kg
[4] = Total, through 192 hours, 3 mg/kg
[5] = Total, through 192 hours, listed as [^14C] dihydroartemisinin, 3 mg/kg
[6] = Urine, listed as [^14C] dihydroartemisinin, 3 mg/kg

Question: With `C[C@@H]1CC[C@H]2[C@@H]([14CH3])C(O)O[C@@H]3O[C@@]4(C)CC[C@@H]1[C@]32OO4` (some centres unmarked) [[^14C] DHA, [16-^14C] DHA] as the compound, how does the “Fecal excretion of total radiolabel (Feces)” value (from here on “Fecal excretion”) ([1]; 0.04–0.33 days) read?
Answer: 1.52 ± 0.58 % of dose

Question: What about the “Fecal excretion” value ([1]; 0.33–1.0 days) of the same compound?
Answer: 29.56 ± 11.75 % of dose

Question: What about the “Fecal excretion” value ([1]; 1–2 days) of the same compound?
Answer: 6.14 ± 1.71 % of dose

Question: What about the “Fecal excretion” value ([1]; 2–3 days) of the same compound?
Answer: 1.64 ± 0.78 % of dose

Question: What about the “Fecal excretion” value ([1]; 3–4 days) of the same compound?
Answer: 0.78 ± 0.31 % of dose

Question: What about the “Fecal excretion” value ([1]; 4–5 days) of the same compound?
Answer: 0.46 ± 0.09 % of dose

Question: And the “Fecal excretion” value ([1]; 5–6 days)?
Answer: 0.15 ± 0.06 % of dose

Question: And the “Fecal excretion” value ([1]; 6–7 days)?
Answer: 0.11 ± 0.05 % of dose

Question: What about the “Fecal excretion” value ([1]; 7–8 days) of the same compound?
Answer: 0.04 ± 0.04 % of dose

Question: What about the Peak height ([1]; Feces, 3 mg/kg) of the same compound?
Answer: 292.39 μg/rat

Question: And the Peak time ([1]; Feces, 3 mg/kg)?
Answer: 0.67 days

Question: What about the Peak height [1, 3] of the same compound?
Answer: 292.39 ± 150.29 μg/rat

Question: And the Peak time [1, 3]?
Answer: 0.67 ± 0.09 days

Question: What about the “Fecal excretion” value [1, 4] of the same compound?
Answer: ~40.39 % of dose and ~40 % of dose

Question: What about the “Total radiolabel in Cage wash” value [1, 4] of the same compound?
Answer: ~1.88 % of dose

Question: What about the “Fecal excretion” value [1, 5] of the same compound?
Answer: 40.39 ± 13.22 % of dose

Question: What about the “Total radiolabel in Cage wash” value [1, 5] of the same compound?
Answer: 1.88 ± 2.27 % of dose

Question: What about the Peak time ([1]; Urine, 3 mg/kg) of the same compound?
Answer: 0.37 days

Question: What about the Peak height [1, 6] of the same compound?
Answer: 234.48 ± 33.74 μg/rat

Question: What about the Peak time [1, 6] of the same compound?
Answer: 0.37 ± 0.06 days

Question: And the “lag time of elimination” value ([1]; faeces)?
Answer: 0.31 days

Question: And the “Ratio of excretion (urine/feces)” value [1]?
Answer: 1.37 ± 0.39

Question: What about the “faecal excretion, range among animals” value ([1]; through 192 hours) of the same compound?
Answer: 27–53 % of the administered dose

Question: And the “urinary excretion, range among animals” value ([1]; through 192 hours)?
Answer: 44–61 % of the administered dose

Question: What about the “total dose excreted within first 24 hours” value ([1]; urine and faeces) of the same compound?
Answer: greater than 74.76%

Question: And the “lag time of elimination” value ([1]; urine)?
Answer: < 0.02 days

Question: What about the maximum binding percentage ([2]; human plasma, concentration range 0.15 – 462 ng/ml) of the same compound?
Answer: 82%

Question: And the “binding percentage declined to, at higher concentrations” value ([2]; human plasma, higher concentrations (> 25 ng/ml))?
Answer: 66%

Question: And the “plasma protein binding percentage” value ([2]; undiluted human plasma, 0.15 to 57800 ng/ml, 37°C, five hours)?
Answer: 76–82%
